From US9669003B2, “Use of flavone and flavanone derivatives in preparation of sedative and hypnotic drugs” (priority 2012, dated 2017)
Marks after values point to notes of the source that are not given here.

Legend:
Format in all cases: in vivo
[1] = tested on: Kunming mice; assay: Influence on autonomic activity of normal mice (ZIL-2 mice autonomic activity meter, counts within 10 min); settings: intragastric, x ± s, n = 10; for Times of activities in 1 h after drug administration/10 min: 1 h after administration; for Times of activities in 2 h after drug administration/10 min: 2 h after administration; for Times of activities in 24 h after drug administration/10 min: 24 h after administration
Method in brief: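 Activity counts during a 10-min window were taken at 1, 2 and 24 h after dosing in groups of 10 mixed-sex Kunming mice. Compounds were given in 0.5% CMC-Na at 25, 50 or 100 mg/kg. Statistics used Levene's homogeneity test, ANOVA and Dunnett's multiple comparisons.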

[2] = tested on: Kunming mice; assay: Influence on hypnosis effect with pentobarbital sodium doses at the threshold (50 mg/kg i.p.); settings: pentobarbital sodium 50 mg/kg i.p. 60 min later, x ± s, n = 10
Method in brief: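 Pentobarbital sodium (0.3%, 50 mg/kg i.p.) injected 60 min after a single intragastric dose (25, 50, 100 mg/kg, 0.5% CMC-Na vehicle) in Kunming mice, 10 per group, sexes balanced. Onset and length of sleep (righting reflex lost over 1 min) analysed by ANOVA; sleeping incidence by χ2 test.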

[3] = tested on: Kunming mice; assay: Influence on hypnosis effect with pentobarbital sodium doses below the threshold (25 mg/kg i.p.); settings: pentobarbital sodium 25 mg/kg i.p. 60 min later, sleep observed in 30 min, n = 10
Method in brief: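 Percentage of mice sleeping within 30 min after subthreshold pentobarbital sodium (25 mg/kg i.p.), defined by loss of righting reflex over 1 min, analysed by χ2. Compound in 0.5% CMC-Na given intragastrically at 25/50/100 mg/kg 60 min before; groups of 10 Kunming mice, both sexes.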

[4] = 25 mg/kg intragastric single dose
[5] = 50 mg/kg intragastric single dose
[6] = 100 mg/kg intragastric single dose
[7] = test drug 25 mg/kg intragastric single dose
[8] = test drug 50 mg/kg intragastric single dose
[9] = test drug 100 mg/kg intragastric single dose

SMILES | Times of activities in 1 h after drug administration/10 min ([1]; 25 mg/kg) | Times of activities in 2 h after drug administration/10 min ([1]; 25 mg/kg) | Times of activities in 24 h after drug administration/10 min ([1]; 25 mg/kg) | Times of activities in 1 h after drug administration/10 min ([1]; 50 mg/kg) | Times of activities in 2 h after drug administration/10 min ([1]; 50 mg/kg) | Times of activities in 24 h after drug administration/10 min ([1]; 50 mg/kg) | Times of activities in 1 h after drug administration/10 min ([1]; 100 mg/kg) | Times of activities in 2 h after drug administration/10 min ([1]; 100 mg/kg) | Times of activities in 24 h after drug administration/10 min ([1]; 100 mg/kg) | duration of sleep [2, 4] [min] | time to sleep [2, 4] [min] | duration of sleep [2, 5] [min] | time to sleep [2, 5] [min] | duration of sleep [2, 6] [min] | time to sleep [2, 6] [min] | Number of sleeping animals [3, 7] | rate of sleeping (%) [3, 7] | Number of sleeping animals [3, 8] | rate of sleeping (%) [3, 8] | Number of sleeping animals [3, 9] | also measured
COc1cc(OC)c2c(=O)cc(-c3ccc(OC)c(O)c3)oc2c1 [Example 4, 3′-hydroxyl-5,7,4′-trimethoxyl-flavone] | 258.2 ± 44.2 /10 min | 250.3 ± 53.9 /10 min | 309.1 ± 76.1 /10 min | 219.3 ± 42.7 /10 min | 223.5 ± 41.3 /10 min | 318.4 ± 96.3 /10 min | 124.2 ± 49.1 /10 min | 127.2 ± 41.9 /10 min | 303.2 ± 90.1 /10 min | 63.65 ± 19.54 | 3.75 ± 1.81 | 69.91 ± 19.82 | 3.41 ± 1.69 | 81.66 ± 30.31 | 2.51 ± 1.61 | 6 | 60** % | 7 | 70** % | 8 | rate of sleeping (%) [3, 9]: 80*** %
C=Cc1cc(C(N)=O)cc2oc(-c3ccc(N)c(C4CCSC4)c3)cc(=O)c12 (stereo not drawn) [Example 38] | 312.9 ± 40.6 /10 min | 296.2 ± 34.6 /10 min | 268.9 ± 82.8 /10 min | 259.2 ± 54.6 /10 min | 257.1 ± 57.2 /10 min | 279.7 ± 76.5 /10 min | 182.7 ± 41.3 /10 min | 165.4 ± 56.2 /10 min | 324.7 ± 80.9 /10 min | 29.67 ± 21.25 | 4.92 ± 2.48 | 36.68 ± 12.30 | 4.67 ± 1.55 | 52.95 ± 20.05 | 3.98 ± 1.27 | 6 | 60** % | 8 | 80*** % | 9 | rate of sleeping (%) [3, 9]: 90*** %
CCCc1cc(O)cc2c1C(=O)CC(c1ccc(-c3ccccc3)c([N+](=O)[O-])c1)O2 (stereo not drawn) [Example 70] | 233.5 ± 58.2 /10 min | 227.8 ± 32.9 /10 min | 316.0 ± 66.9 /10 min | 159.9 ± 45.0 /10 min | 141.0 ± 46.3 /10 min | 320.9 ± 81.4 /10 min | 129.3 ± 41.3 /10 min | 117.8 ± 39.6 /10 min | 320.7 ± 60.9 /10 min | 47.57 ± 18.97 | 3.60 ± 1.69 | 61.38 ± 27.39 | 3.21 ± 1.35 | 73.09 ± 25.56 | 2.28 ± 1.13 | 6 | 60** % | 8 | 80*** % | 9 | rate of sleeping (%) [3, 9]: 90*** %
